Viability data for 78 compounds are collected here from article PMC12040169 (PLOS Biology, 2025).

This series in a line: in vitro. Particulars: human, hela cells, % viability.

For `Cc1ccc([C@@]2(O)CC[C@@H]3CN(S(=O)(=O)C(C)C)C[C@@H]32)cc1` [CBK285297], the viability – broadly, a read-out of living cells in per cent, often relative to untreated cells – at 28.5 h, 10 µM was found to be 97.8%.

As for `O=C(OCCC1SC(NC2CC3C=CC2C3)=NC1=O)c1c(F)cccc1Cl` (stereo not drawn) [CBK200061T], the viability at 28.5 h, 10 µM is 88.7%.

For `Nc1c(C(=O)O)nnn1Cc1ccccc1` [CBK263796], the viability at 28.5 h, 10 µM is 95.6%.

For the compound `CC1CCN(S(=O)(=O)c2ccc(C(=O)NC(C(=O)O)C(C)O)cc2)CC1` (stereo not drawn) [CBK297151], the viability at 28.5 h, 10 µM was found to be 99.1%.

For the compound `COc1cc2c(cc1CN(Cc1ccc3c(c1)OCO3)CC(C)O)CCC2` (stereo not drawn) [CBK286473], the viability at 28.5 h, 10 µM worked out at 91.6%.

For `Cn1c(=O)oc2cc(S(=O)(=O)Nc3cccc(CCc4ccccn4)c3)ccc21` [CBK286357], the viability at 28.5 h, 10 µM came to 102%.

Take `COc1ccc(NC(=O)c2cc(-c3cccnc3)nc3c(C)c(C)ccc23)c(OC)c1` [CBK267746]: the viability at 28.5 h, 10 µM is 96.2%.

Consider `CCOC(=O)c1c(NC(=O)c2ccccc2C(=O)O)sc2c1CCCC2` [CBK116364], for which the viability at 28.5 h, 10 µM was 113%.

Regarding `Cc1cc(COC(=O)N2CCC(CO)CC2)cc(C)n1` [CBK200152], the viability at 28.5 h, 10 µM came out at 91%.

On to `CCOC(=O)c1c(NC(=O)CSc2nnc3ccccn23)sc2c1CCC(C)C2` (stereo not drawn) [CBK265668], for which the viability at 28.5 h, 10 µM came to 89%.

On to `COc1ccc(C(=O)N2CCC3(CCCN(C(=O)CCSC)C3)C2)cc1OC` (stereo not drawn) [CBK131661], for which the viability at 28.5 h, 10 µM came to 111%.

For the compound `COc1ccc(-c2cnc(N)c(NCc3cccnc3)n2)c(OC)c1OC` [CBK063540], the viability at 28.5 h, 10 µM was 99%.

With `COc1ccc2c(C)nc(NC3=NC(c4ccccc4)CC(=O)N3)nc2c1` (stereo not drawn) [CBK270230], the viability at 28.5 h, 10 µM is 85.4%.

Regarding `CCOC(=O)C(C)n1nc(C)n2c(cc3ccsc32)c1=O` (stereo not drawn) [CBK284079], the viability at 28.5 h, 10 µM worked out at 96.2%.

With `Cc1nc(N2CCOCC2)[nH]c(=O)c1CCC(=O)Nc1ccccc1F` [CBK305003], the viability at 28.5 h, 10 µM stood at 97.7%.

Take `CC(CNC(=O)c1cncc(Br)c1)NC(=O)c1cncc(Br)c1` (stereo not drawn) [CBK262040]: the viability at 28.5 h, 10 µM stood at 91.6%.

`Cc1nc(CSc2nc3sc4c(c3c(=O)n2-c2ccccc2)CCCCC4)cs1` [CBK265706]: the viability at 28.5 h, 10 µM stood at 110%.

For `COc1ccc(CCN2CCC(CNC(=O)NCc3ccccc3)CC2)cc1OC` [CBK051511T], the viability at 28.5 h, 10 µM was determined as 92.3%.

Take `OC1(CN2CCCC2)COCCN(c2nnc(-c3ccccc3)s2)C1` (stereo not drawn) [CBK306558]: the viability at 28.5 h, 10 µM is 97.5%.

On to `Cc1cc(C)n2c(SCC(C)(C)NS(=O)(=O)c3ccccc3)nnc2n1` [CBK268369], for which the viability at 28.5 h, 10 µM amounted to 111%.

As for `COC(=O)c1ccccc1NC(=O)CN(C)S(=O)(=O)c1c(C)cc(C)cc1C` [CBK266241], the viability at 28.5 h, 10 µM was 110%.

With `O=[N+]([O-])c1ccc(CN2CCN(C3CCN(Cc4ccccc4)CC3)CC2)cc1` [CBK264310G], the viability at 28.5 h, 10 µM was determined as 98.5%.

As to `CC(NC(=O)c1ccccc1)c1nnc(SCC(=O)c2ccccc2)n1C` (stereo not drawn) [CBK269644], the viability at 28.5 h, 10 µM stood at 82.3%.

`CCOC(=O)Nc1ccsc1C(=O)OC` [CBK027880]: the viability at 28.5 h, 10 µM came to 88.6%.

On to `CCCCNC(=O)N1CCN(c2ccccc2Cl)CC1` [CBK043777], for which the viability at 28.5 h, 10 µM is 106%.

Consider `COc1ccc(OCCCN2C(=O)C3(CC(=O)N(Cc4ccccc4)C3=O)c3cc(OC)ccc32)cc1` (stereo not drawn) [CBK075523], for which the viability at 28.5 h, 10 µM is 106%.

On to `O=[N+]([O-])c1ccc(OC(CNS(=O)(=O)c2ccc(Cl)cc2)c2ccccc2)cc1` (stereo not drawn) [CBK262817], for which the viability at 28.5 h, 10 µM came out at 93%.

Take `COc1ccc(C)cc1S(=O)(=O)n1ccc2c(CNC3CCN(C(C)C)CC3)cccc21` [CBK113310T]: the viability at 28.5 h, 10 µM stood at 117%.

`Cc1ccc(-c2nccnc2OCCn2cccc2)cc1C` [CBK106864]: the viability at 28.5 h, 10 µM was found to be 101%.

For `CC1CC1c1nnc(C2(c3ccc(Br)cc3)CCOCC2)o1` (stereo not drawn) [CBK304712], the viability at 28.5 h, 10 µM is 94.1%.

For `O=C(O)C1CC1C(=O)N1CCC2(CC1)OCc1cc(-c3ccco3)ccc1O2` (stereo not drawn) [CBK060825], the viability at 28.5 h, 10 µM (bulk resorufin, single well) amounted to 103%.

Take `COc1ccccc1CN(C(=O)Nc1ccc(S(C)(=O)=O)cc1)C1CC1` [CBK305787]: the viability at 28.5 h, 10 µM was 90.9%.

Turning to `Cc1cc(CNC(=O)N2CCCC(CO)C2)no1` (stereo not drawn) [CBK156028], the viability at 28.5 h, 10 µM came to 94.5%.

On to `C=CCN1C(=O)CC2(C1=O)C(=O)N(Cc1nc(-c3ccc(Cl)cc3)no1)c1ccc(OC)cc12` (stereo not drawn) [CBK075692], for which the viability at 28.5 h, 10 µM is 97.1%.

On to `O=C(c1ccccc1)c1ccc(S(=O)(=O)N2CCCN(Cc3cc(F)c(F)c(F)c3)CC2)cc1` [CBK062777], for which the viability at 28.5 h, 10 µM stood at 91.2%.

Consider `Cn1nc2c(cc1=O)CN(C(=O)c1ccc3cc[nH]c3c1)CC2` [CBK304343], for which the viability at 28.5 h, 10 µM is 93.8%.

Take `COc1ccc(NC(=O)c2cnc3sc(C)cn3c2=O)c(OC)c1` [CBK287712]: the viability at 28.5 h, 10 µM came to 87%.

On to `N#Cc1ccccc1Cn1cc(C(=O)C(N)=O)c2ccccc21` [CBK269862], for which the viability at 28.5 h, 10 µM came out at 93.5%.

With `O=C(CSc1nnc(-c2cccc(Br)c2)o1)Nc1cccc([N+](=O)[O-])c1` [CBK264212], the viability at 28.5 h, 10 µM came out at 101%.

In the case of `CCn1ncc(CN2C3CCC2CC(O)(c2ccccc2F)C3)c1C` (stereo not drawn) [CBK282663], the viability at 28.5 h, 10 µM came to 85%.

In the case of `COc1ccccc1CN(C)C(=O)Nc1ccc(S(N)(=O)=O)cc1` [CBK306026], the viability at 28.5 h, 10 µM amounted to 90.4%.

In the case of `O=S(=O)(c1ccc(F)cc1)N1CCCC1c1cccc(Cc2ccc(F)cc2)n1` (stereo not drawn) [CBK286249], the viability at 28.5 h, 10 µM is 88%.

Take `Cn1c(SCc2ccccc2)nc2ccsc2c1=O` [CBK288039]: the viability at 28.5 h, 10 µM is 82.1%.

Consider `CCOc1ccc(NC(c2ccccc2)c2cc3cc(OC)ccc3[nH]c2=O)cc1` (stereo not drawn) [CBK286157], for which the viability at 28.5 h, 10 µM was found to be 81.7%.

Consider `O=C(CO)N1CC2(CCN(Cc3ccc(Cl)c(Cl)c3)CC2)c2ccccc21` [CBK131495], for which the viability at 28.5 h, 10 µM turned out to be 89.5%.

`Cc1cc(Br)c(NC(=O)COc2ccc(/C=C(\C#N)C(N)=S)cc2)cc1C` [CBK269014]: the viability at 28.5 h, 10 µM worked out at 97.5%.

Regarding `Cc1cccn2cc(CCNC(=O)N3CCOCC3C3CC3)nc12` (stereo not drawn) [CBK304033], the viability at 28.5 h, 10 µM amounted to 104%.

As to `CNC(=O)CN(C)C(=O)c1coc(COc2ccc3sc(C)nc3c2)n1` [CBK307571], the viability at 28.5 h, 10 µM is 83.1%.

For `CC(=O)N1CCCN(Cc2c(C(C)C)[nH]c3ncccc23)CC1` [CBK285333], the viability at 28.5 h, 10 µM was determined as 103%.

Turning to `CN1CCN(S(=O)(=O)c2ccc3oc(=O)ccc3c2)CC1` [CBK062431], the viability at 28.5 h, 10 µM worked out at 118%.

`CC1=C[C@@H](CNC(=O)NC(C)C)[C@H](C(C)C)C[C@H]1CC(=O)N1CCN(C)CC1` [CBK289047]: the viability at 28.5 h, 10 µM was 100%.

With `Cc1ccc(S(=O)(=O)Nc2c(C(=O)O)sc3ncccc23)cc1[N+](=O)[O-]` [CBK049983], the viability at 28.5 h, 10 µM was 91.6%.

Regarding `C(=N\N1CCN(Cc2cccc3ccccc23)CC1)/c1ccncc1` [CBK263003], the viability at 28.5 h, 10 µM was 94.6%.

For `O=C(Nc1ccc2c(c1)OCO2)c1cccc(I)c1` [CBK058308], the viability at 28.5 h, 10 µM is 85.7%.

As for `Clc1ccc(OCc2ccccc2)c(CNCCN2CCOCC2)c1` [CBK278162C], the viability at 28.5 h, 10 µM amounted to 93.4%.

`Cc1ccc(S(=O)(=O)Nc2sc3c(c2C(=O)N2CCN(C)CC2)CCCC3)cc1[N+](=O)[O-]` [CBK028650]: the viability at 28.5 h, 10 µM was found to be 93.9%.

In the case of `COc1ccccc1NC(=O)c1ccc(-c2nnc(-c3ccccc3)o2)cc1` [CBK266533], the viability at 28.5 h, 10 µM was 107%.

Consider `COc1ccc(/C=C(\C)C(=O)Nc2cccnc2N2CCNCC2)cc1OC` [CBK034124T], for which the viability at 28.5 h, 10 µM came to 88.3%.

`Cc1ncc(CN2CCCC(O)(c3ccc(F)cc3)CC2)n1C` (stereo not drawn) [CBK284836]: the viability at 28.5 h, 10 µM is 89.6%.

As to `CCOC(=O)C1CCN(CC(=O)Nc2ccc(S(N)(=O)=O)cc2)CC1` [CBK266118], the viability at 28.5 h, 10 µM came to 94%.

Take `O=C(CSc1nnc2c(n1)[nH]c1ccccc12)NCCOc1ccccc1` [CBK268358]: the viability at 28.5 h, 10 µM was 101%.

With `Cc1ccc(SCCCNCCN(C)C)cc1` [CBK267807C], the viability at 28.5 h, 10 µM is 92.2%.

For `CC(NC(=O)C1CCN(Cc2ccccn2)CC1)c1cccc2ccccc12` (stereo not drawn) [CBK148662], the viability at 28.5 h, 10 µM was 98.2%.

As for `Cc1ccc(NC(=O)c2cnccn2)c(C)n1` [CBK200291], the viability at 28.5 h, 10 µM is 97.2%.

For the compound `O=C(NCc1ccc(F)cc1)N(Cc1cccc(Cl)c1)CC1CCNCC1` [CBK119479], the viability at 28.5 h, 10 µM worked out at 117%.

Turning to `CN(C)CCCNC(=O)c1cc(-c2ccc(Cl)cc2)on1` [CBK116557], the viability at 28.5 h, 10 µM came to 90.2%.

On to `O=C(c1ccccc1)N1C[C@@H](c2ccsc2)[C@@H]2CN(Cc3ccccc3F)CC[C@@H]21` [CBK285612], for which the viability at 28.5 h, 10 µM turned out to be 116%.

For the compound `CCC1CCCCN1C(=O)c1ccc(C)c(Cl)c1` (stereo not drawn) [CBK082756], the viability at 28.5 h, 10 µM came to 91.7%.

In the case of `O=C(C1CCCCC1)N1CC[C@H](c2nnc(-c3cccnc3)o2)C1` [CBK289412], the viability at 28.5 h, 10 µM amounted to 103%.

As for `O=C(CC1(O)C(=O)N(Cc2ccccc2)c2ccccc21)c1cc2ccccc2oc1=O` (stereo not drawn) [CBK293963], the viability at 28.5 h, 10 µM amounted to 106%.

Take `CN(C(=O)CN1CCN(c2cc(-c3cc(C(F)(F)F)cc(C(F)(F)F)c3)ncn2)CC1)c1ccccc1` [CBK091125]: the viability at 28.5 h, 10 µM is 103%.

Regarding `Cc1nn(C)c(Cl)c1S(=O)(=O)Nc1cc(N2CCN(C(=O)OC(C)(C)C)CC2)c2occc2c1` [CBK067787], the viability at 28.5 h, 10 µM was 95.8%.

Take `COc1ccc(S(=O)(=O)NC(C)C(=O)NCc2ccncc2)cc1` (stereo not drawn) [CBK269441]: the viability at 28.5 h, 10 µM amounted to 107%.

With `CCc1ccc(-c2cnccc2-n2ccnc2)cc1` [CBK177151], the viability at 28.5 h, 10 µM is 93%.

`Cc1cc(C(=O)N2CCC(c3nccn3C)CC2)ccc1F` [CBK304355]: the viability at 28.5 h, 10 µM was 89.7%.

With `CCOC(=O)c1cnc2c(C(F)(F)F)cccc2c1NCCCN1CCOCC1` [CBK266012], the viability at 28.5 h, 10 µM amounted to 92.4%.

For the compound `CNc1nc(NCCCn2c(C)cccc2=O)cc(C2CCOC2)n1` (stereo not drawn) [CBK306875], the viability at 28.5 h, 10 µM is 117%.

Consider `O=C(O)CCn1cc(C=C2C(=O)NC(=S)NC2=O)c(-c2cc3ccccc3oc2=O)n1` [CBK265293], for which, where the note is “bulk resorufin, single well”, the viability at 28.5 h, 10 µM is 91.8%.
